In US10286038B2, “Lysosome membrane protein 2 (LIMP-2) based peptides and related uses” (Northwestern University, priority 2016, dated 2019):

Experiments:
[1] = tested on: endogenous and overexpressed GC in cell lysates; details: after incubation with peptide
Experimental: The artificial substrates were dissolved in sodium citrate buffer (0.2 M Na-citrate, 0.4% BSA, pH 4.6). All activity assays were performed at acid pH.
Cell lysate protein (20-200 μg) or recombinant protein (0.2 nmol GC/N370S or LAMAN) was incubated with 100 μL of 10 mM artificial absorbent substrate (4-nitrophenyl β-D-glucopyranoside or 4-nitrophenyl-N-acetyl-β-D-glucosaminide). The samples were incubated at 37° C. for 2 h to measure GC activity or for 5 h to assess LAMAN activity. The reaction was stopped by applying 500-1,000 μL of stop solution (0.4 M glycine, pH 10.4), and the absorbance was measured in a clear 96-well plate at 405 nm in a plate reader (Synergy HT; BioTek). Enzyme activities of cellular lysates were normalized to protein concentration (expressed in milliunits per milligram) and are shown relative to buffer control. Enzyme activities of recombinant proteins are shown as milliunits per milligram or are stated relative to buffer control.

[2] = molecular target: T1, lysosomal GC of living H4 cells (Homo sapiens, UniProt P04062); assay: live-cell lysosomal GC activity assay in H4 cells; format: cell-based; details: 10 μM TAT peptide, relative to buffer control
T1 construct: Lysosomal GC activity of living H4 cells measured in vivo after incubation with uptake-optimized TAT-peptides; endogenous in cells; host or cells: H4 human neuroglioma cells (for the 74 h course: stably overexpressing α-synuclein)
T1 sequence (P04062 40-536): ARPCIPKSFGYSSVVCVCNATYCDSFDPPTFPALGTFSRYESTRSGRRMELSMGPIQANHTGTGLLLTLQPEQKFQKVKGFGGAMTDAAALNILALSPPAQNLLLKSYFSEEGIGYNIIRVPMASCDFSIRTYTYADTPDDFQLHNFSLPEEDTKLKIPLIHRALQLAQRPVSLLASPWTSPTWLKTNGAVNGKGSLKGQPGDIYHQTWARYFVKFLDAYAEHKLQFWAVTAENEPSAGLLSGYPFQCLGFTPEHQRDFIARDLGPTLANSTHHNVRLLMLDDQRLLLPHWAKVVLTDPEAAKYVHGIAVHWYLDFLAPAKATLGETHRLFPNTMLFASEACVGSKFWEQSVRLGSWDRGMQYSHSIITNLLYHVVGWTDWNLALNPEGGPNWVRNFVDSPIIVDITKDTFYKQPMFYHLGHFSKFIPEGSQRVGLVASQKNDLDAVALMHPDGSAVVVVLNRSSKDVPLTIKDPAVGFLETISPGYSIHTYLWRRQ
Experimental: Lysosomal GC activity in living cells was assessed by applying a drug-response assay in the presence and absence of a lysosomal inhibitor (bafilomycin A1; Invivogen) dissolved in DMSO (24). TAT peptides (10 μM) were added to the cell medium for 1 h; then H4 cells (see Table 5) were incubated with 100 μg/mL cell-permeable artificial substrate 5-(pentafluorobenzoylamino) fluorescein di-β-D-glucopyranoside (PFB-FDGlu) (Life Technologies, Thermo Fisher Scientific) for another hour. Cells were washed with warm medium; then the medium was replaced with phenol red-free neurobasal medium (Life Technologies, Thermo Fisher Scientific). The fluorescence intensity was recorded every 30 min for β-4 h in a SpectraMax i3 plate reader (Molecular Devices) (PFB-FDGlu: excitation=485 nm, emission=530 nm). After the final reading, cells were fixed in 4% formaldehyde/PBS and were stained with CellTag 700 (LICOR Biosciences) according to the manufacturer's instructions to measure cell volume. The plate was scanned on an Odyssey infrared imager (LI-COR Biosciences). Fluorescence intensities were normalized to cell volume and graphed versus time. Whole-cell activity was obtained by calculating the area below the DMSO curve. Nonlysosomal activity corresponds to the area under the bafilomycin A1 curve. Lysosomal activity was obtained by subtracting both areas (FIG. 6H).

[3] = tested on: α-synuclein in H4 cells stably overexpressing α-synuclein; details: doxycycline, 74 hrs post incubation, compared to 3×D control peptide
Experimental: For Western blotting 20-40 μg of protein was loaded on a 10% Tris-SDS (made in house) or 4-12% Bis-Tris/NuPAGE Novex gel system (Thermo Fisher Scientific), subjected to electrophoresis, and blotted on nitrocellulose or PVDF membranes [2 h at 4° C. and 0.85 ampere (A) constant]. Membranes were blocked in 5% (wt/vol) milk Tris-buffered saline (TBS-T, pH 7.4, 0.1% Tween-20), and primary antibodies were incubated overnight (for more details on antibody dilutions see Table 4). PVDF membranes for α-synuclein detection were postfixed in 0.4% paraformaldehyde (PFA) (Polysciences Inc.) for 20 min after blotting. Signals were normalized to the respective loading controls [actin, neuronal-specific enolase (NSE), or GAPDH] […] Primary antibodies were incubated overnight at 4° C. After three washing steps in TBS-T the membranes were incubated for 1 h with the respective secondary antibody at room temperature. After the membrane was washed again three times with TBS-T, the signal of the antibody was detected using a chemiluminescence detection system (LAS4000; GE Healthcare Life Sciences) or by scanning on an infrared imager (Odyssey; LI-COR Biosciences).
The α-synuclein turn-over rate in the presence of the LIMP-2-derived peptides was assessed in human neuroglioma cells (H4), stably overexpressing α-synuclein. […]

Row | Substance | enzymatic activity of endogenous and overexpressed GC in cell lysates [1] | elevation of GC activity within lysosomes of living cells [2] | α-synuclein levels [3]
1 | Biotin-Ttds-LREIIEAMLKAYQQKLFVTHTVDE [helix 5 peptide] | could also be increased | – | –
2 | Biotin-Ttds-KFERQLREIIEAMLKAYQQKLFVTHTVDEYGRKKRRQRRR [helix 5 TAT-peptide] | – | 18% | significant reduction
